# Measurements reported in publication PMC1513218 (BMC Pharmacology, 2006).
# Structures can show the parent of a compound that is named as a salt.
# How the values were obtained:
# [1] = molecular target: T1, anthrax lethal factor (LF) protease (Bacillus anthracis, UniProt P15917); test: biochemical; assay type: biochemical
# furin = furin (Homo sapiens, UniProt P09958); test: Furin inhibition, fluorogenic substrate cleavage assay; assay type: biochemical
# [2] = molecular target: botulinum neurotoxin/A (BoNT/A) (Clostridium botulinum, UniProt P0DPI1); test: biochemical; assay type: biochemical
# botulinum neurotoxin/A (BoNT/A), sequence (P0DPI1 whole entry, looked up): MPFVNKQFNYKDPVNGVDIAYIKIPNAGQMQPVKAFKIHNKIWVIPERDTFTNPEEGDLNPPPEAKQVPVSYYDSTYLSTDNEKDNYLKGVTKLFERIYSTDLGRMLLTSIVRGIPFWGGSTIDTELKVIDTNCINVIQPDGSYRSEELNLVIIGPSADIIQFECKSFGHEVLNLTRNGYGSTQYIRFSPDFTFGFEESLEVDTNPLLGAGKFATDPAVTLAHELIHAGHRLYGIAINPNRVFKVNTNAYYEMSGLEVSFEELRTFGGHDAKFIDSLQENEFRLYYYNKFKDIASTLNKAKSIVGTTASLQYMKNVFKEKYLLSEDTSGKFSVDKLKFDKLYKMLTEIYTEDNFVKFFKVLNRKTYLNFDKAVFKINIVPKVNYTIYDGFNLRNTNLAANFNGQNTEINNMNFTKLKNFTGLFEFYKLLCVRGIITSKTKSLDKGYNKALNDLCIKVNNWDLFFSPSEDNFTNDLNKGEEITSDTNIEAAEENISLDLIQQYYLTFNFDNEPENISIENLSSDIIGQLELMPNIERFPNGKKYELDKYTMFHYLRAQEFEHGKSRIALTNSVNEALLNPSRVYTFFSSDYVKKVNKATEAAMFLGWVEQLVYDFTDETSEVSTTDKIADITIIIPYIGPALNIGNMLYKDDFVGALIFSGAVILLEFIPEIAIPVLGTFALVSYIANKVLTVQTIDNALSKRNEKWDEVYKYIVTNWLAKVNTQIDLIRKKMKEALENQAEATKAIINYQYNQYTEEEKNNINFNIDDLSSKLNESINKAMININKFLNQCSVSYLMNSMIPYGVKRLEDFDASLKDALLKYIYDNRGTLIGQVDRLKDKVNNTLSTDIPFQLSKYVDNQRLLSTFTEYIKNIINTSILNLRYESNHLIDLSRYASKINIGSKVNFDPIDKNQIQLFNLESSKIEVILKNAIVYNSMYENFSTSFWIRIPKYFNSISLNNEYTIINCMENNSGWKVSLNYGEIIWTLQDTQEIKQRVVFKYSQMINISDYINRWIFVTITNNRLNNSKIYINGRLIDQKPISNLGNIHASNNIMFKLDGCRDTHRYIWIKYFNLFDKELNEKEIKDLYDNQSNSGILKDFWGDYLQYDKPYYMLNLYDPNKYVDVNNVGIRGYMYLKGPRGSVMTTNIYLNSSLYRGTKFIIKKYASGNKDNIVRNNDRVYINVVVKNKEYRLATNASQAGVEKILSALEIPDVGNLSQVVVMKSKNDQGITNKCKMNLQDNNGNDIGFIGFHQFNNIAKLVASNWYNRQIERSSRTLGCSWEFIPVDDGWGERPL
# MMP-9 = MMP-9 (Homo sapiens, UniProt P14780); test: biochemical
# MMP-9, sequence (P14780 94-707, species assumed): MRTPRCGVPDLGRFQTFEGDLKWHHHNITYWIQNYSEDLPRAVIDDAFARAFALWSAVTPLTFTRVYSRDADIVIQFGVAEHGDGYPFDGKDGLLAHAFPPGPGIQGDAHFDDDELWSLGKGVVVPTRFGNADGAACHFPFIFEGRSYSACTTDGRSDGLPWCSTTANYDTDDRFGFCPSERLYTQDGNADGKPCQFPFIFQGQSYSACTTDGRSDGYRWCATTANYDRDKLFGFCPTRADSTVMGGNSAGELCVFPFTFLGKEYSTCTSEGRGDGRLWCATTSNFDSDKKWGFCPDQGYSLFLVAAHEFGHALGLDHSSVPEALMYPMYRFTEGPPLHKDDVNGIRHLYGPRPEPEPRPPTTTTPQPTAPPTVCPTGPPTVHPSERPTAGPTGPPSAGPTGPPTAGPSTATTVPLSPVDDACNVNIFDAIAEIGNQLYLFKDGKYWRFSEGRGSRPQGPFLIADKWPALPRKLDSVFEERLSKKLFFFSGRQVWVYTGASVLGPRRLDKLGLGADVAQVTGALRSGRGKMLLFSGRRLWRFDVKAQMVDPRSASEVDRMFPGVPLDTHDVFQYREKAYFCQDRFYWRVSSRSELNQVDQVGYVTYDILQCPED
# [3] = molecular target: T1, anthrax lethal factor (LF) protease; assay type: biochemical
# trypsin = trypsin (Homo sapiens, UniProt P07477); test: biochemical
# cathepsin B = cathepsin B (Homo sapiens, UniProt P07858); test: biochemical
# cathepsin D = cathepsin D (Homo sapiens, UniProt P07339); test: biochemical
# cathepsin D, sequence (P07339 65-412, species assumed): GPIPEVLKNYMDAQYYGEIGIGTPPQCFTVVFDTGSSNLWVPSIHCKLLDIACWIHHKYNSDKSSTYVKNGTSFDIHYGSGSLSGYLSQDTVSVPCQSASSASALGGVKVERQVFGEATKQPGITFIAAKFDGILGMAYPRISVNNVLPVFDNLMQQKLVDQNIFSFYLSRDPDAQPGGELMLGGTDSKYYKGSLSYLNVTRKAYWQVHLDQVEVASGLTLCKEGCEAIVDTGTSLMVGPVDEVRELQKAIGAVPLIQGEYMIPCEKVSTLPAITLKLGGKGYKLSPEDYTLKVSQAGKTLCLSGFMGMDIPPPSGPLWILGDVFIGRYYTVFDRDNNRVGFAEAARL
# T1 sequence (P15917 34-809 limits assumed): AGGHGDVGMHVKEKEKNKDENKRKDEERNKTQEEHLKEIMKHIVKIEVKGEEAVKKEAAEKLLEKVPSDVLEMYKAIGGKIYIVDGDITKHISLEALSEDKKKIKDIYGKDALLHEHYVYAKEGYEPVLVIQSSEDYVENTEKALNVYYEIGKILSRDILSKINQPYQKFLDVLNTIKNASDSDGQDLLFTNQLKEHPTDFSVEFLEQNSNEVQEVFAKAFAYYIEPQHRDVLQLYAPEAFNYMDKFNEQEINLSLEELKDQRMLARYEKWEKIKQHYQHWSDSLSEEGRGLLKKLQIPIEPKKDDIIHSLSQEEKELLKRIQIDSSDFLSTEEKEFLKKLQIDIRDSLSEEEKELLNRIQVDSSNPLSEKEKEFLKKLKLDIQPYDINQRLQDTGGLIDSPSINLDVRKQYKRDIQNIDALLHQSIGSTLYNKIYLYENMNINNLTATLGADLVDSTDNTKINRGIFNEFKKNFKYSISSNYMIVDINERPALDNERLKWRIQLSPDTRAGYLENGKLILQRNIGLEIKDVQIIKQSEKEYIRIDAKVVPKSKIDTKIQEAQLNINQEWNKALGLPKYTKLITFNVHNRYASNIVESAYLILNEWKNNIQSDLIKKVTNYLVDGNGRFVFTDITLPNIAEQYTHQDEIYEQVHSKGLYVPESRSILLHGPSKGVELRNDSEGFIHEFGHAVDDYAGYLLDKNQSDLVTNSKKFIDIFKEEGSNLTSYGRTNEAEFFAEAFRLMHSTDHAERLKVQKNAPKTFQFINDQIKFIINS
# furin, sequence (P09958 108-794): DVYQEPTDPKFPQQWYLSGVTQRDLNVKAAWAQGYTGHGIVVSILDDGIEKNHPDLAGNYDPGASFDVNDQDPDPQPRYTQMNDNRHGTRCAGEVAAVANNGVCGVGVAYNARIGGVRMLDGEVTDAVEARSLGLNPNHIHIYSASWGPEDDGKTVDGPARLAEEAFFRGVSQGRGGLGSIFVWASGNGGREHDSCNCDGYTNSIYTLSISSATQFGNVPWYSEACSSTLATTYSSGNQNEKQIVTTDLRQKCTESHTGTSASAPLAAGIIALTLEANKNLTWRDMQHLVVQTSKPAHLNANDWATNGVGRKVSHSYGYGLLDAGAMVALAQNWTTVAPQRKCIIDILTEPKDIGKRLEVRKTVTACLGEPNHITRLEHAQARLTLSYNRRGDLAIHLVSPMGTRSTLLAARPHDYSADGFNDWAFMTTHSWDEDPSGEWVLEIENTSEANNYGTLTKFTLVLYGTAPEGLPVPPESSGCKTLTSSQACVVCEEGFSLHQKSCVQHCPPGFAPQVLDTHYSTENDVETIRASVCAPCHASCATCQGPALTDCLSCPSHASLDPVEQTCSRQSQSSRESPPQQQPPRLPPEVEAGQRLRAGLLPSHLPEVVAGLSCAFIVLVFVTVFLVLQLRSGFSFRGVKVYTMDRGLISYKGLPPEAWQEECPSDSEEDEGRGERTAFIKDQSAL
Compound,Ki [1],IC50 [2],Ki (MMP-9),also measured
CC(=O)N[C@@H](CCCNC(=N)N)C(=O)N[C@@H](CCCNC(=N)N)C(=O)N[C@@H](CCCNC(=N)N)C(=O)N[C@@H](CCCNC(=N)N)C(=O)N[C@@H](CCCNC(=N)N)C(=O)N[C@@H](CCCNC(=N)N)C(N)=O [Ac-RRRRRR-NH2],0.12 µM,,,
CC(=O)N[C@@H](CCCNC(=N)N)C(=O)N[C@@H](CCCNC(=N)N)C(=O)N[C@@H](CCCNC(=N)N)C(=O)N[C@@H](CCCNC(=N)N)C(=O)N[C@@H](CCCNC(=N)N)C(=O)N[C@@H](CCCNC(=N)N)C(=O)O [Ac-RRRRRR-OH],0.29 ± 0.04 µM,,,Ki (furin): 0.05 µM
NCC[C@H](O)C(=O)N[C@@H]1C[C@H](N)[C@@H](O[C@H]2O[C@H](CN)[C@@H](O)[C@H](O)[C@H]2O)[C@H](O)[C@H]1O[C@H]1O[C@H](CO)[C@@H](O)[C@H](N)[C@H]1O [Amikacin],23.3 µM,> 300 µM,> 300 µM,
CN[C@@H]1[C@@H](O[C@H]2O[C@H](CO)[C@@H](N)[C@H](O)[C@H]2O)OC2C[C@@H](N)[C@@H](O[C@H]3[C@H](O)[C@@H](O)[C@H](N)C[C@@H]3N)OC2[C@@H]1O (stereo partly drawn) [Apramycin],111 µM,> 300 µM,> 300 µM,
CNC(=O)[C@H](Cc1c[nH]c2ccccc12)NC(=O)[C@@H](CC(=O)NO)CC(C)C [GM 6001],7.2 ± 1.76 µM,> 300 µM,,
N=C(N)NCCC[C@@H](N)C(=O)N[C@H](CCCNC(=N)N)C(=O)N[C@H](CCCNC(=N)N)C(=O)N[C@H](CCCNC(=N)N)C(=O)N[C@H](CCCNC(=N)N)C(=O)N[C@H](CCCNC(=N)N)C(N)=O [H-(D-Arg)-(D-Arg)-(D-Arg)-(D-Arg)-(D-Arg)-(D-Arg)-NH2],0.04 ± 0.02 µM,,,Ki (furin): 0.06 µM
NC(N)=NCCC[C@H](NC(=O)[C@H](CCCN=C(N)N)NC(=O)[C@H](CCCN=C(N)N)NC(=O)[C@H](CCCN=C(N)N)NC(=O)[C@H](CCCN=C(N)N)NC(=O)[C@@H](N)CCCN=C(N)N)C(=O)O [H-RRRRRR-OH],0.24 µM,,,Ki (furin): 0.06 µM
"NC[C@H]1O[C@H](O[C@H]2[C@H](O)[C@@H](O)[C@H](N)C[C@@H]2N)[C@H](N)[C@@H](O)[C@@H]1O [Neamine (free base), Neamine]",31.1 ± 5.6 µM,175 µM,> 300 µM,effect of DNA or RNA on concentration-dependent LF inhibitory activity [3]: unaffected by DNA or RNA
N=C(N)NC[C@@H]1O[C@H](O[C@H]2[C@@H](O)[C@H](O[C@@H]3[C@@H](O)[C@H](NC(=N)N)C[C@H](NC(=N)N)[C@H]3O[C@H]3O[C@H](CNC(=N)N)[C@@H](O)[C@H](O)[C@H]3NC(=N)N)O[C@@H]2CO)[C@H](NC(=N)N)[C@@H](O)[C@@H]1O [Neomycin B hexaguanyl hexatrifluoroacetate salt],0.03 µM,14 µM,> 170 µM,Ki (furin): 1.5 µM
NC[C@@H]1O[C@H](O[C@H]2[C@@H](O)[C@H](O[C@@H]3[C@@H](O)[C@H](N)C[C@H](N)[C@H]3O[C@H]3O[C@H](CN)[C@@H](O)[C@H](O)[C@H]3N)O[C@@H]2CO)[C@H](N)[C@@H](O)[C@@H]1O [Neomycin B tris-sulfate],0.71 ± 0.04 µM,92.5 µM,> 300 µM,right shift in potency as LF inhibitor caused by DNA [3]: ~ 10 fold
"NCCCCN [Putrescine (1,4-diaminobutane), 1,4-diaminobutane]",> 300 µM,> 300 µM,> 300 µM,
CN[C@@H]1[C@@H](O)[C@@H](O[C@@H]2[C@@H](O)[C@H](O[C@H]3OC(CN)=CC[C@H]3N)[C@@H](N)C[C@H]2N)OC[C@]1(C)O [Sisomicin Sulfate],1.8 µM,> 300 µM,> 300 µM,
NCCCCNCCCN [Spermidine],> 100 µM,76 µM,,LF inhibition (in words) [1]: weaker than spermine but were still concentration-dependent inhibitors
"NCCCNCCCCNCCCN [Spermine, diphosphate salt]",0.9 ± 0.09 µM,57 µM,> 300 µM,Ki [2]: 46 ± 6 µM; fold weaker as botulinum protease inhibitor than as anthrax LF inhibitor [2]: > 40 fold; effect of DNA or RNA on concentration-dependent LF inhibitory activity [3]: unaffected by DNA or RNA; IC50 (trypsin): > 500 µM; IC50 (cathepsin B): > 500 µM; IC50 (cathepsin D): > 500 µM
"N=C(N)NC[C@H]1O[C@H](O[C@H]2[C@H](O)[C@@H](O)[C@H](NC(=N)N)C[C@@H]2NC(=N)N)[C@H](NC(=N)N)[C@@H](O)[C@@H]1O [Tetraguanyl neamine, free base, Tetraguanyl neamine]",0.3 µM,,,
CNC(C)C1CCC(N)C(OC2C(N)CC(N)C(OC3OCC(C)(O)C(NC)C3O)C2O)O1 (stereo not drawn) [gentamicin],,,,LF inhibition (in words) [1]: inhibited LF enzyme activity
NCCC[C@H](N)C(=O)O [ornithine],,,,LF inhibition (in words) [1]: weaker than spermine but were still concentration-dependent inhibitors
